In assay [1] the test system is PMA stimulated THP1 cells. Kind of assay: Inhibition of lipoprotein (Cy3-oxLDL) uptake / lipid vesicle accumulation in macrophage foam cells. It counts as cell-based. To be noted: PMA-differentiated THP1 cells, 2 hours with cy3 labeled oxLDL (1 µg/ml), fluorescence microscopy. On the procedure: The THP-1 cell line from the European Collection of Cell Cultures, (ECACC, Wilshire, UK) were selected to generate a cellular model that mimics the differentiation and the growth of a foam cell. Typically, the cells (5.10^5 cells/ml) were maintained and grown in RPMI-1640, 10% FBS, 100 Unit/ml penicillin and 100 µg/ml streptomycin, […] L-Glutamine (Biowhittaker, Verviers , Belgium) in 37°C, 5% CO2 incubator. Medium was replaced every 2-3 days.
Human LDL were isolated from fresh plasma using a two steps KBr gradient ultracentrifugation (Leger et al., Free Rad. Res., 2002, 36, 127-142), LDL were dialyzed against NaCl 150 mM, sodium phosphate 10 mM, DTPA 10 µM (pH 7,4) for 24 hours. […]
Finally, lipoproteins were also characterized by their electrophoretic mobility. […] At the end of the labeling procedure, Cy3-OxLDL was extensively dialyzed and labeling efficiency was evaluated by measuring the absorbance at 548 nm.
To induce differentiation into macrophages, 1.5 10^5 cells/wells were plated in 96-well plates in culture medium supplemented with 10^-7 M of phorbol 12-myristate-13-acetate (Sigma) for 24 hours at 37°C, 5% CO2. […] After 2 washes with PBS, images of Cy-3 oxLDL uptake were captured using a fluorescence microscope coupled with a CCD camera. Each image was analyzed and quantified using QFluoro Software (Leica).

The test system of another assay is thromboxane A2. To be noted: described in EP 0 623 019; cited from earlier work.

Here are results for one molecule from patent publication EP1466597A1, “Use of dha esters to control or prevent cardiovascular diseases” (Clinigenetics, priority 2003, dated 2004).

Entries after “also recorded” stand apart in the source; their conditions may differ.

`CC/C=C\C/C=C\C/C=C\C/C=C\C/C=C\C/C=C\CCC(=O)O[C@H](CO)COP(=O)([O-])OCC[N+](C)(C)C` [lyso-PCDHA, 1-lyso, 2-DHA-glycero-phosphocholine]: the “accumulation of lipid vesicles in macrophage / formation of foam cells” value in assay [1] was “can block the accumulation of lipid rich vesicles in macrophage and prevent the formation of foam cell; also recorded: Dose dependent effect for the inhibition of lipid vesicles in macrophage cells; also recorded: can inhibit the accumulation of lipid vesicles in macrophage and block the formation of foam cells”. In addition, in the assay on thromboxane A2, the platelet aggregation inhibition entry is listed as “platelet aggregation inhibitors”.
